Laboratory results: patent publication US20080103045A1, “Preparation For Eradicating Algae And Microorganisms In Aqueous Environment” (LIFETECH S.R.O., priority 2005, published 2008)

What was measured:
Conditions in all cases: effective concentration of copper cations
[1] = tested on: Synechococcus leopoliensis
Mycrocystis incerta = tested on: Mycrocystis incerta
Scenedesmus quadricauda = tested on: Scenedesmus quadricauda
Chlorella kessleri = tested on: Chlorella kessleri
Raphidocelis subcapitata = tested on: Raphidocelis subcapitata
Anabaena sp. = tested on: Anabaena sp.

Compound: O=S(=O)([O-])[O-].[Cu+2] [copper sulfate]
- EC50 (mg/l Cu(II)) [1]: 1.26 mg/l Cu(II)
- EC50 (mg/l Cu(II)) (Mycrocystis incerta): 1.26 mg/l Cu(II)
- EC50 (mg/l Cu(II)) (Scenedesmus quadricauda): 1.15 mg/l Cu(II)
- EC50 (mg/l Cu(II)) (Chlorella kessleri): 1.14 mg/l Cu(II)
- EC50 (mg/l Cu(II)) (Raphidocelis subcapitata): 1.27 mg/l Cu(II)
- EC50 (mg/l Cu(II)) (Anabaena sp.): 0.50 mg/l Cu(II)
